Source: patent US20180000085A1, “USE OF PICOLINAMIDE COMPOUNDS WITH FUNGICIDAL ACTIVITY” (DOW AGROSCIENCES LLC, priority 2014, published 2018)

Legend:
Format in all cases: in vivo
Zymoseptoria tritici = test: Leaf blotch of wheat (SEPTTR) disease control on wheat seedlings; settings: for SEPTTR 1DP, LV activity at 125.1 g/H (% Control rating) / SEPTTR 3DC, LV activity at 125.1 g/H (% Control rating) / SEPTTR 1DP disease control rating, LV activity at 125.1 g/H / SEPTTR 3DC disease control rating, LV activity at 125.1 g/H: low volume application; for SEPTTR 1DP disease control rating, LV activity at 125.1 g/H: 1 day protectant; for SEPTTR 3DC disease control rating, LV activity at 125.1 g/H: 3 day curative
Puccinia triticina = test: Wheat brown rust (PUCCRT) disease control on wheat seedlings; settings: for PUCCRT 1DP, LV activity at 125.1 g/H (% Control rating) / PUCCRT 3DC, LV activity at 125.1 g/H (% Control rating) / PUCCRT 1DP disease control rating, LV activity at 125.1 g/H / PUCCRT 3DC disease control rating, LV activity at 125.1 g/H: low volume application; for PUCCRT 1DP disease control rating, LV activity at 125.1 g/H: 1 day protectant; for PUCCRT 3DC disease control rating, LV activity at 125.1 g/H: 3 day curative
Phakopsora pachyrhizi = test: Asian soybean rust (PHAKPA) disease control; parameters: key: A: > 80; B: ≤ 80; C: Not Tested; D: No Activity Observed in the Reported Assay; settings: 25 ppm; for PHAKPA disease control, 1DP: 1 Day Protectant; for PHAKPA disease control, 3DC: 3 Day Curative

| Structure (SMILES) | SEPTTR 1DP, LV activity at 125.1 g/H (% Control rating) (Zymoseptoria tritici; 1 Day Protectant) | SEPTTR 3DC, LV activity at 125.1 g/H (% Control rating) (Zymoseptoria tritici; 3 Day Curative) | PUCCRT 1DP, LV activity at 125.1 g/H (% Control rating) (Puccinia triticina; 1 Day Protectant) | PUCCRT 3DC, LV activity at 125.1 g/H (% Control rating) (Puccinia triticina; 3 Day Curative) | PHAKPA disease control, 1DP (Phakopsora pachyrhizi) | PHAKPA disease control, 3DC (Phakopsora pachyrhizi) | SEPTTR 1DP disease control rating, LV activity at 125.1 g/H (Zymoseptoria tritici) | SEPTTR 3DC disease control rating, LV activity at 125.1 g/H (Zymoseptoria tritici) | PUCCRT 1DP disease control rating, LV activity at 125.1 g/H (Puccinia triticina) | PUCCRT 3DC disease control rating, LV activity at 125.1 g/H (Puccinia triticina) | further results |
| --- | --- | --- | --- | --- | --- | --- | --- | --- | --- | --- | --- |
| COc1ccnc(C(=O)N[C@@H](C)C(=O)O[C@@H](C)[C@H](Oc2cccc(F)c2)C(C)C)c1OCOC(C)=O [Cmpd 614] | B (≤ 80) | A (> 80) | A (> 80) | A (> 80) | A (> 80) | A (> 80) | – | – | – | – | – |
| CCC(CC)[C@@H](OCC1CC1)[C@H](C)OC(=O)[C@H](C)NC(=O)c1nccc(OC)c1OCOC(C)=O [Cmpd 553] | B (≤ 80) | A (> 80) | A (> 80) | A (> 80) | A (> 80) | A (> 80) | – | – | – | – | – |
| CCC(CC)[C@@H](Oc1ccc(F)cc1)[C@H](C)OC(=O)[C@H](C)NC(=O)c1nccc(OC)c1OC(C)=O [Cmpd 598] | A (> 80) | A (> 80) | A (> 80) | A (> 80) | A (> 80) | B (≤ 80) | – | – | – | – | – |
| COc1ccnc(C(=O)NC(C)C(=O)OC(C)C(OCC(C)C)C2CCCC2)c1OCOC(C)=O (stereo not shown) [Cmpd 915] | – | – | – | – | A (> 80) | B (≤ 80) | B (≤ 80) | A (> 80) | A (> 80) | A (> 80) | – |
| C=CC(OCCC)C(Oc1ccccc1)C(C)OC(=O)C(C)NC(=O)c1nccc(OC)c1OCOC(C)=O (stereo not shown) [Cmpd 455] | – | – | – | – | A (> 80) | B (≤ 80) | – | – | – | – | SEPTTR 1DP disease control rating, HV activity (Zymoseptoria tritici; HV application at 100 ppm, 1 Day Protectant, wheat leaf blotch): A (> 80); SEPTTR 3DC disease control rating, HV activity (Zymoseptoria tritici; HV application at 100 ppm, 3 Day Curative, wheat leaf blotch): A (> 80); SEPTTR 1DP disease control rating, LV activity (Zymoseptoria tritici; Low volume application at 125.1 g/H, 1 Day Protectant, wheat leaf blotch): A (> 80); SEPTTR 3DC disease control rating, LV activity (Zymoseptoria tritici; Low volume application at 125.1 g/H, 3 Day Curative, wheat leaf blotch): A (> 80); PUCCRT 1DP disease control rating, HV activity (Puccinia triticina; HV application at 100 ppm, 1 Day Protectant, wheat brown rust): A (> 80); PUCCRT 3DC disease control rating, HV activity (Puccinia triticina; HV application at 100 ppm, 3 Day Curative, wheat brown rust): A (> 80); PUCCRT 1DP disease control rating, LV activity (Puccinia triticina; Low volume application at 125.1 g/H, 1 Day Protectant, wheat brown rust): A (> 80); PUCCRT 3DC disease control rating, LV activity (Puccinia triticina; Low volume application at 125.1 g/H, 3 Day Curative, wheat brown rust): A (> 80) |
| COc1ccnc(C(=O)N[C@@H](C)C(=O)O[C@@H](C)[C@H](Oc2ccc(Cl)cc2)C(C)C)c1OC(C)=O [Cmpd 568] | B (≤ 80) | A (> 80) | A (> 80) | A (> 80) | A (> 80) | B (≤ 80) | – | – | – | – | – |
| CCC(CC)[C@@H](Oc1cccc(Cl)c1)[C@H](C)OC(=O)[C@H](C)NC(=O)c1nccc(OC)c1OC(C)=O [Cmpd 599] | A (> 80) | A (> 80) | B (≤ 80) | A (> 80) | A (> 80) | A (> 80) | – | – | – | – | – |
| COc1ccnc(C(=O)N[C@@H](C)C(=O)O[C@@H](C)[C@H](Oc2ccccc2)c2ccc(F)cc2)c1OCOC(C)=O [Cmpd 924] | – | – | – | – | A (> 80) | D | A (> 80) | A (> 80) | A (> 80) | A (> 80) | – |
| COc1ccnc(C(=O)NC(C)C(=O)OC(C)C(Oc2cccc(F)c2)C2CCCC2)c1OCOC(C)=O (stereo not shown) [Cmpd 909] | – | – | – | – | A (> 80) | B (≤ 80) | A (> 80) | A (> 80) | A (> 80) | A (> 80) | – |
| CCC(CC)[C@@H](Oc1ccccc1)[C@H](C)OC(=O)CNC(=O)c1nccc(OC)c1OC(C)=O [Cmpd 480] | B (≤ 80) | B (≤ 80) | A (> 80) | A (> 80) | B (≤ 80) | B (≤ 80) | – | – | – | – | – |
| COc1ccnc(C(=O)N[C@@H](C)C(=O)O[C@@H](C)[C@H](Oc2cccc(F)c2)c2ccccc2)c1OC(C)=O [Cmpd 575] | A (> 80) | A (> 80) | A (> 80) | A (> 80) | A (> 80) | B (≤ 80) | – | – | – | – | – |
| COc1ccnc(C(=O)NC(C)C(=O)OC(C)C(Oc2ccccc2)C2CCCCC2)c1OC(C)=O (stereo not shown) [Cmpd 908] | – | – | – | – | A (> 80) | B (≤ 80) | A (> 80) | A (> 80) | A (> 80) | A (> 80) | – |
| COc1ccnc(C(=O)NC(C)C(=O)OC(C)C(Oc2ccc(C)cc2)C2CCCC2)c1OCOC(C)=O (stereo not shown) [Cmpd 916] | – | – | – | – | A (> 80) | D | A (> 80) | B (≤ 80) | A (> 80) | A (> 80) | – |
| CCC(CC)[C@H](Oc1ccc(Cl)cc1)[C@H](C)OC(=O)[C@H](C)NC(=O)c1nccc(OC)c1OCOC(C)=O [Cmpd 669] | – | – | – | – | A (> 80) | B (≤ 80) | A (> 80) | A (> 80) | A (> 80) | A (> 80) | – |
| COc1ccnc(C(=O)N[C@@H](C)C(=O)O[C@@H](C)[C@H](OCC2CC2)c2cccc(-c3ccccc3)c2)c1OCOC(C)=O [Cmpd 873] | – | – | – | – | A (> 80) | B (≤ 80) | B (≤ 80) | A (> 80) | A (> 80) | A (> 80) | – |
